Data taken from US20260159474A1, “Aminoindane Compounds and Compositions and Methods of Their Therapeutic Use” (Solvonis Therapeutics Ireland Holdings Limited, priority 2021, published 2026).
Values joined by “and” are separate entries in the source; they are usually repeats but may differ in a detail not shown here. Equal entries are not always repeated.

Columns and labels:
[1] = system: 5-HT release in rat synaptosomes; assay: Serotonin release assay in rat cortex synaptosomes; assay type: biochemical; settings: for 5-HT Release (pEC50): rat cortex synaptosomes, % of maximal release with 50 μM MDMA, n=2; for SERT/DAT Release Ratio: ratio of 5-HT and DA release potency, rat synaptosomes
Protocol: (§1) Methods-Evaluation of Monoamine Release: The potency of therapeutic compounds for stimulating DA release was measured by an endpoint release filtration assay in a 96-well format using rat synaptosomes, essentially as described by Sandtner et al. (Mol Pharmacol., 2016; 89(1):165-75.) and Baumann et al. (Neuropsychopharmacol, 2013; 38:552-562.) with some variations. One male rat was euthanized, and striatum/cortex regions were dissected over ice. The striatum portions were weighed and put in a glass tube containing ice-cold 0.32 M sucrose (dilution 1:24 w/v) for homogenization, while the frontal cortex tissue was diluted in ice-cold 0.32 M sucrose, 1:20 w/v. Tissues were homogenized and centrifuged for 10 mins at 1000×g. The two supernatants from striatum and cortex (crude synaptosomes) were retained on ice until use.
(§2) Test compounds were then serially diluted 1:4 in neat DMSO as concentration-response curves (CRC) of 11 points. To each well of a 2-mL 96 deep-well plate (Whatman UNIPLATE 96 well) were added: 2 μL of a concentration-response curve (CRC) of test compounds or 2 μL of DMSO (no-release condition) or 2 μL of MDMA 10 mM solution (final 50 μM, for maximal release), followed by 200 μL/well of complete Krebs-phosphate buffer (126 mM NaCl, 2.4 mM KCl, 0.83 mM CaCl2), 0.8 mM MgCl2, 0.5 mM KH2PO4, 0.5 mM Na2SO4, 11.1 mM glucose, 0.05 mM pargyline, 1 mg/mL ascorbic acid, freshly added, pH 7.4), containing 1 μM reserpine to block vesicular uptake of substrate. Desipramine (100 nM) and citalopram (100 nM) were also added to the release assay buffer in order to inhibit NET and SERT uptake, respectively. The final compound dilution, then, was 1:200 in 0.5% DMSO.
(§3) The raw data (cpm) from residual radioactivity onto the filter were elaborated for the determination of pEC50/EC50 values. Specifically, the compound effect was expressed as the percent of maximal release obtained with 50 μM MDMA (100% release) in comparison to vehicle (0.5% DMSO, 0% release). Both MDMA and D-amphetamine in CRC were used as internal controls in each release experiment. In each plate, for both 0% and 100% of release, the signal window was monitored and Z′ calculations were determined using the raw data of four replicates. 5-HT release was calculated in an identical fashion, except that 5 nM 3H-serotonin was added to crude cortex synaptosomes preparation diluted 1:13 (v/v) in complete Krebs-phosphate buffer containing 1 μM Reserpine, 100 nM GBR12909 and 100 nM nomifensine to block vesicular, DAT, and NET uptake, respectively. Synaptosomes were then loaded with 3H-5HT for 60 minutes at RT. After dispensing loaded synaptosomes onto a compound plate (200 μL/well), the release reaction proceeded for an additional 15 minutes. Stop by filtration, counting, and data elaboration were performed as described for DA release. Compounds were tested in duplicate (n=2).

human DAT = target: T1, human DAT (Homo sapiens, UniProt Q01959); assay: DAT uptake SPA in hDAT-CHO cells; assay type: cell-based; settings: [3H]-dopamine uptake, hDAT-CHO cells; read-out: DAT Uptake SPA (pIC50) (converted)
T1 construct: expressed in transfected cells; host or cells: CHO (hDAT-CHO)
T1 sequence (Q01959 whole entry): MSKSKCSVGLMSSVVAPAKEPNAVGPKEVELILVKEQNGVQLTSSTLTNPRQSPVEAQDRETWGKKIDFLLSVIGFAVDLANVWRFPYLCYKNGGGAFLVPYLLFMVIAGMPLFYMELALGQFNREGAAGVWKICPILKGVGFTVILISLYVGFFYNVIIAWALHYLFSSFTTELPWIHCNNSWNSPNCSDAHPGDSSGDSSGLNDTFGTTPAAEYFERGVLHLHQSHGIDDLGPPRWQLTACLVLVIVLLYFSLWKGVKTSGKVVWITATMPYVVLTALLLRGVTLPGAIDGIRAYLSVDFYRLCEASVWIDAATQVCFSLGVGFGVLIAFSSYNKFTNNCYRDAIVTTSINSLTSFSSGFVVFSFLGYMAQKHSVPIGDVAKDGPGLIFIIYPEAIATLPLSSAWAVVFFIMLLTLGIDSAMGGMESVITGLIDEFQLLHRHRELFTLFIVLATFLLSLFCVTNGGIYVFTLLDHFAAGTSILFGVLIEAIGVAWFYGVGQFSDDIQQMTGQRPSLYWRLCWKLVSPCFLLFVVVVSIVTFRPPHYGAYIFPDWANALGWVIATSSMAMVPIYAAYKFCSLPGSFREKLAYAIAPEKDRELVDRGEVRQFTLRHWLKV
Protocol: Methods-Evaluation of Monoamine Uptake/Transporter Inhibition: Inhibitory activity on DAT function was measured using an uptake assay in a recombinant CHO cell line stably expressing human DAT (hDAT-CHO). Potency was measured in terms of pIC50 by testing for inhibition of [3H]-dopamine uptake in hDAT-CHO cells in a multiwell format SPA.
(§4) Briefly, on experiment days, hDAT-CHO cells were detached using Versene and added at a density of approximately 300,000 cells/mL to the SPA Mixture, which contains the following components in Assay Buffer (20 mM HEPES, 145 mM NaCl, 5 mM KCl, 2 mM CaCl2), 1 mM MgCl2, 5.5 mM glucose, 0.01% Pluronic F127, pH 7.3): 0.75 mg/mL SPA Imaging beads (RPNQ0001, PerkinElmer), 10 μM pargyline and 80 nM of [3H]-dopamine (NET673, PerkinEImer). The SPA Mixture was added 20 μL/well to 384 well plates containing 0.1 μL/well of test compound in neat DMSO (11 points of 1:5 serial dilution, 0.5% DMSO final) or 0.1 μL of DMSO (total uptake) or 0.1 μL of the standard inhibitor indatraline (at 1 μM final concentration, as nonspecific uptake). Plates were sealed with a Top-seal A and read using a Microbeta counter (PerkinElmer) after 45 minutes of incubation at room temperature. […] The SPA Mixture was added 20 μL/well to 384 well plates containing 0.1 μL/well of test compound in neat DMSO (11 points of 1:5 serial dilution, 0.5% DMSO final), 0.1 μL of DMSO (total uptake), or 0.1 μL of the standard inhibitor indatraline (1 μM, nonspecific uptake). Plates were sealed with a Top-seal A and read using a Microbeta counter (PerkinElmer) after 120 minutes of incubation at room temperature.
For both tests, the raw experimental data (cpm) were elaborated for the determination of pIC50/IC50 values as % inhibition of specific uptake.

[2] = system: DA release in rat synaptosomes; assay: Dopamine release assay in rat striatal synaptosomes; assay type: biochemical; settings: % of maximal release with 50 μM MDMA, n=2
Protocol: as §1, §2
3H-Dopamine was added to the tube containing the crude striatal synaptosomes preparation, diluted 1:20 (v/v) in complete Krebs-phosphate buffer, and was incubated at RT and gently mixed for 60 minutes. Then, 200 μL/well of 3H-DA loaded synaptosomes were dispensed to the compound plate (final 400 μL/well), and the release reaction proceeded for an additional 15 minutes at RT. The release was terminated by vacuum filtration and washing three times with 1 mL of saline solution (NaCl 0.9%) at RT. The retained radioactivity was counted in a scintillation counter after the addition of 50 μL/well Microscint-20.
as §3

hSERT = target: T2, hSERT (Homo sapiens, UniProt P31645); assay: SERT uptake SPA in hSERT-CHO cells; assay type: cell-based; settings: for IC50: [3H]-serotonin uptake, hSERT-CHO cells, read-out: SERT Uptake SPA (pIC50) (converted)
T2 construct: expressed in transfected cells; host or cells: CHO (hSERT-CHO)
T2 sequence (P31645 whole entry): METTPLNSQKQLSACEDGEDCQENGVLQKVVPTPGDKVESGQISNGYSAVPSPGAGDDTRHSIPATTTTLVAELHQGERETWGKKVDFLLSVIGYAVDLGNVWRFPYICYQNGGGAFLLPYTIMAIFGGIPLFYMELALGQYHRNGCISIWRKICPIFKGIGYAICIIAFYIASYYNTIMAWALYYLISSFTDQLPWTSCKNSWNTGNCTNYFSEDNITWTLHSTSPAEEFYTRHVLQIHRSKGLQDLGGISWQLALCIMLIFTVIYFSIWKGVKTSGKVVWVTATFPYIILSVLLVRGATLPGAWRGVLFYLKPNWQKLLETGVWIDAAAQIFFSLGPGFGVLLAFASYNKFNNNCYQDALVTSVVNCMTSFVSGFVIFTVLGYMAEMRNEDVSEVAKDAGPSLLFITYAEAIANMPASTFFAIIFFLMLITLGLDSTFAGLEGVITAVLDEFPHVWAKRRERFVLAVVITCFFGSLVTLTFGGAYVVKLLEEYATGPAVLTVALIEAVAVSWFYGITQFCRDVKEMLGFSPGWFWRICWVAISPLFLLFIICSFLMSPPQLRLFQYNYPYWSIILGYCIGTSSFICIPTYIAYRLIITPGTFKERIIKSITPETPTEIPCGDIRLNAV
Protocol: as §4
For both tests, the raw experimental data (cpm) were elaborated for the determination of pIC50/IC50 values as % inhibition of specific uptake. Concentration-response curves of MDMA, MDDMA, citalopram and GBR-12909 were used as internal standards in all experiments, and the signal window was monitored in each plate performing Z′ calculations, as described in Zhang et al., J Biomol Screen.

DAT/SERT = settings: Simmler et al., Br J Pharmacol. 2013; cited from earlier work

SMILES | 5-HT Release (pEC50) [1] | SERT/DAT Release Ratio [1] | IC50 (human DAT) | DA Release (pEC50) [2] | IC50 (hSERT) | SERT/DAT Uptake Ratio (hSERT; calculated as 1/SERT IC50:1/DAT IC50) | DAT/SERT ratio (DAT/SERT)
COC(=O)Cc1ccc2c(c1)CC(N)C2 (centres unmarked) [CMP-406] | 4.3 | >2.0 | > 100 µM | <4.0 | 63.1 µM | >1.6 | 
COC(=O)CCc1ccc2c(c1)CC(N)C2 (centres unmarked) [CMP-407] | <4.0 | <0.25 | 63.1 µM | 4.6 | 25.1 µM |  | 
COC(=O)Cc1cc2c(cc1OC)CC(N)C2 (centres unmarked) [CMP-408] | 4.6 | 3.9 | 100 µM | <4.0 | 39.8 µM |  | 
CN[C@@H](C)Cc1ccccc1 [methamphetamine] |  |  |  |  |  |  | > 10 and 10
